Measured values reported in patent US11779015B2, “Pesticide compositions” (FUNDACIÓ CENTRE DE REGULACIÓ GENÒMICA, priority 2017, dated 2023).
Entries after “also recorded” stand apart in the source; their conditions may differ.

Columns and labels:
D. suzukii = test: Airborne toxicity petri dish assay, adult flies exposed to VOC vapours (FIG. 1A); assay type: in vivo, Drosophila suzukii; details: for time to 100% dead flies: monitored over 1 hour
Method: A selection of compounds according to the invention were tested for airborne toxicity to D. suzukii by exposing a population of adult D. suzukii flies to the vapours of the compound using an experimental set up as shown on FIG. 1A.
In particular, adult flies 2 were exposed to compositions 4 comprising one or more of a selection of VOCs according to the invention or a comparative example, in a petri dish 6. The compositions 4 were loaded onto the lid 6a of the petri dish 6 and the flies were placed into the base 6b of the dish, which was then covered by a sheet of plastic mesh netting 8 to avoid direct contact of the flies 2 with the compositions 4, before replacing the lid 6a.
[…] Four drops of 50 microlitres were dispensed into reinforcement rings (not shown) fixed on the inner surface of the petri dish lid 6a.
The experimental set up used was as described in relation to FIG. 1A.
The data is shown as averages±SEM based on 3 to 6 trials for each condition.

[1] = tested on: honeybees (Apis mellifera); test: Airborne toxicity on honeybees in the petri dish assay; assay type: in vivo; details: paraffin oil, 24 hours
adult D. suzukii flies = test: Petri dish assay, dose-range 0.3 to 10% vol in paraffin oil, 24 h exposure (FIG. 3E); assay type: in vivo, Drosophila suzukii; details: for Minimal concentration (%) to induce 100% morbidity/mortality in D. suzukii adults: paraffin oil, 24 h exposure (Example 2); for concentration at which toxicity is displayed (as low as): dose-range 0.3 to 10% vol in paraffin oil, 24 h exposure, adult D. suzukii
Description: Data are represented as mean proportion of dead flies, with counts separated between male (as indicated by ‘M’) and female (as indicated by ‘F’) flies. […] Data points marked NaN were not tested at the indicated concentration. The MEC column summarises the minimal effective concentration to induce 100% morbidity/mortality to adult D. suzukii flies.

[2] = VOC at 10 M in paraffin oil, vapour exposure, 1 hour
[3] = VOC at 10 M in paraffin oil, vapour exposure

Compound | airborne toxicity/lethality in the initial screen with a high dose (words) (D. suzukii; [2]) | further results
CCCCCCO [1-hexanol] | showed toxicity | 
CCCCCC(C)=O [2-heptanone] | showed toxicity | 
CCC=C(C)C=O [2-methyl-2-pentenal] | showed toxicity | 
CC1=C(O)C(=O)OC1C (centres unmarked) [4,5-Dimethyl-3-hydroxy-2,5-dihydrofuran-2-one, reference compound] | showed toxicity | 
CC=CC(=O)CC [4-hexen-3-one] | showed toxicity | Percentage of dead honey bee adults (%) ([1]; applied concentration 3%): 0%; Minimal concentration (%) to induce 100% morbidity/mortality in D. suzukii adults (adult D. suzukii flies): 3%
CC/C=C\CC/C=C/C=O [(E)-2,(Z)-6-nonadienal, trans-2,cis-6-Nonadienal] | showed toxicity | Percentage of dead honey bee adults (%) ([1]; applied concentration 3%): 10%; Minimal concentration (%) to induce 100% morbidity/mortality in D. suzukii adults (adult D. suzukii flies): 3%
CCCC/C=C/C=O [(E)-2-heptenal] | showed toxicity | Percentage of dead honey bee adults (%) ([1]; applied concentration 3%): 0%; Minimal concentration (%) to induce 100% morbidity/mortality in D. suzukii adults (adult D. suzukii flies): 3%
CC/C=C/C=O [(E)-2-pentenal] | showed toxicity | 
CCCC/C=C/C=C/C=O [(E,E)-2,4-nonadienal] | showed toxicity | Percentage of dead honey bee adults (%) ([1]; applied concentration 2%): 0%; Percentage of dead honey bee adults (%) ([1]; applied concentration 5%): 0%; concentration at which toxicity is displayed (as low as) (adult D. suzukii flies): 2%; Minimal concentration (%) to induce 100% morbidity/mortality in D. suzukii adults (adult D. suzukii flies): 2%
CCCCCCC/C=C/C=O [E-2-decenal] |  | Percentage of dead honey bee adults (%) ([1]; applied concentration 2%): 0%
CCCCCCCCC/C=C/C=O [E-2-dodecenal] | showed toxicity | 
CCCCCC/C=C/C=O [E-2-nonenal] | showed toxicity | concentration at which toxicity is displayed (as low as) (adult D. suzukii flies): 2%
CCCCC/C=C/C=O [E-2-octenal] | showed toxicity | concentration at which toxicity is displayed (as low as) (adult D. suzukii flies): 2%
CCCCCCCCCC/C=C/C=O [E-2-tridecenal] | showed toxicity | time to 100% dead flies (D. suzukii; [3]): an hour
CCCCCCCC/C=C/C=O [E-2-undecenal] | showed toxicity | 
CC/C=C/CCO [E-3-hexenol] |  | airborne toxicity/lethality in the initial screen with a high dose (words) (D. suzukii; in vivo): showed toxicity
CC(=O)c1ccccc1 [acetophenone, Acetophenone] | showed toxicity | 
C=CCOC(=O)C1=CCCC1 [allyl 1-cyclopentene-1-carboxylate, Allyl 1-cyclopentene-1-carboxylate] | showed toxicity | Percentage of dead honey bee adults (%) ([1]; applied concentration 1%): 0%; concentration at which toxicity is displayed (as low as) (adult D. suzukii flies): 0.3%; Minimal concentration (%) to induce 100% morbidity/mortality in D. suzukii adults (adult D. suzukii flies): 0.5%

Compound | airborne toxicity/lethality in the initial screen with a high dose (words) (D. suzukii; [2]) | further results
O=Cc1ccccc1 [benzaldehyde, Benzaldehyde] | showed toxicity | 
O=C(OCc1ccccc1)c1ccccc1 [benzyl benzoate, Benzyl benzoate, reference compound] | did not cause mortality | airborne toxicity/lethality in the initial screen with a high dose (words) (D. suzukii; VOC at 10 M in paraffin oil, vapour exposure, 1 hour, listed as Benzyl benzoate): not toxic
O=C(OCc1ccccc1)c1ccccc1O [benzyl salicylate, Benzyl salicylate, reference compound] | did not cause mortality; also recorded: not toxic | 
CCCCOC(=O)C1CCCC1 [butyl cyclopentanecarboxylate, Butyl cyclopentanecarboxylate] | showed toxicity | Percentage of dead honey bee adults (%) ([1]; applied concentration 3%): 0%; Minimal concentration (%) to induce 100% morbidity/mortality in D. suzukii adults (adult D. suzukii flies): 3%
CCOC(=O)c1ccccc1 [ethyl benzoate, Ethyl benzoate] | showed toxicity | 
CCOC(=O)Cc1ccccc1 [ethyl phenyl acetate, Ethyl phenylacetate] | showed toxicity | time to 100% dead flies (D. suzukii; [3]): half an hour
CCCCCCC=O [heptanal, Heptanal] | showed toxicity | 
CC(C)OC(=O)C1CCCC1 [isopropyl cyclopentanecarboxylate, Isopropyl cyclopentanecarboxylate] | showed toxicity | 
C=CC(C)(CCC=C(C)C)OC(=O)c1ccccc1 (centres unmarked) [linalyl benzoate, Linalyl benzoate, reference compound] | did not cause mortality; also recorded: not toxic | 
CCC(C)C(=O)OC (centres unmarked) [methyl 2-methylbutyrate, Methyl 2-methyl butyrate] | showed toxicity | 
COC(=O)C1CCCCC1 [methyl cyclohexanoate] | showed toxicity | 
COC(=O)C1CCCC1 [methyl cyclopentanecarboxylate, Methyl cyclopentanecarboxylate] | showed toxicity | 
COC(=O)c1ccccc1O [methyl salicylate] | showed toxicity | 
CCCCCCCCC=O [nonanal, Nonanal] | showed toxicity | Percentage of dead honey bee adults (%) ([1]; applied concentration 3%): 0%; Minimal concentration (%) to induce 100% morbidity/mortality in D. suzukii adults (adult D. suzukii flies): 3%
CCCCCCCC=O [octanal, Octanal] | showed toxicity | 
CCCCC=O [pentanal, Pentanal] | showed toxicity | 
CCCCCOC(=O)c1ccccc1 [pentyl benzoate, Pentyl benzoate] | showed toxicity | time to 100% dead flies (D. suzukii; [3]): an hour
CCCOC(=O)c1ccccc1 [propyl benzoate, Propyl benzoate] | showed toxicity | 
